# According to patent US20060045953A1 (priority 2004, published 2006):
# Biological target: T1, hT1R2/hT1R3 sweet receptor (Homo sapiens, UniProt Q7RTX0+Q8TE23)
# T1 construct: expressed in transfected cells; host or cells: HEK293 derivative stably expressing Gα15, clone S-9
# T1 sequence (Q8TE23 20-839): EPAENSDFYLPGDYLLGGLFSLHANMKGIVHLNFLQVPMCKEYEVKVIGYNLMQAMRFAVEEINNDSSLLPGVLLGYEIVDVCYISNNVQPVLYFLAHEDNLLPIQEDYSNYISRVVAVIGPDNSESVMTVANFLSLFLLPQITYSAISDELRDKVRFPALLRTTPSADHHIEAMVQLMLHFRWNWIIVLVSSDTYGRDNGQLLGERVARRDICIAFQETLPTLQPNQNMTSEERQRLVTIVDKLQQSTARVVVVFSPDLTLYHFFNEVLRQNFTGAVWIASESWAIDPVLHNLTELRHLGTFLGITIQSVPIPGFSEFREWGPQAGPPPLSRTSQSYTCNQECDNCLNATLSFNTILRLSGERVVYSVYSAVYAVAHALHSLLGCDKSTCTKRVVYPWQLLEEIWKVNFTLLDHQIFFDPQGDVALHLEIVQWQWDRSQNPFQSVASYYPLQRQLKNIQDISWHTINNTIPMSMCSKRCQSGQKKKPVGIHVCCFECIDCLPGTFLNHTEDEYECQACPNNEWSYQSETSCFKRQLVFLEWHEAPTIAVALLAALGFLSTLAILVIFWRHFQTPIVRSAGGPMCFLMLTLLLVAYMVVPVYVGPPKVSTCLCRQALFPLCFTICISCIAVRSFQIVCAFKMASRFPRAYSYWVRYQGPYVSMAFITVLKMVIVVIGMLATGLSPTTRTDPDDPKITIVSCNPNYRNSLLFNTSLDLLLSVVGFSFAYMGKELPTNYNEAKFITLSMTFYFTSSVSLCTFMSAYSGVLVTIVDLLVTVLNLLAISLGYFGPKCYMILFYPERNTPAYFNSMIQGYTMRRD
# T1 sequence (Q7RTX0 21-852): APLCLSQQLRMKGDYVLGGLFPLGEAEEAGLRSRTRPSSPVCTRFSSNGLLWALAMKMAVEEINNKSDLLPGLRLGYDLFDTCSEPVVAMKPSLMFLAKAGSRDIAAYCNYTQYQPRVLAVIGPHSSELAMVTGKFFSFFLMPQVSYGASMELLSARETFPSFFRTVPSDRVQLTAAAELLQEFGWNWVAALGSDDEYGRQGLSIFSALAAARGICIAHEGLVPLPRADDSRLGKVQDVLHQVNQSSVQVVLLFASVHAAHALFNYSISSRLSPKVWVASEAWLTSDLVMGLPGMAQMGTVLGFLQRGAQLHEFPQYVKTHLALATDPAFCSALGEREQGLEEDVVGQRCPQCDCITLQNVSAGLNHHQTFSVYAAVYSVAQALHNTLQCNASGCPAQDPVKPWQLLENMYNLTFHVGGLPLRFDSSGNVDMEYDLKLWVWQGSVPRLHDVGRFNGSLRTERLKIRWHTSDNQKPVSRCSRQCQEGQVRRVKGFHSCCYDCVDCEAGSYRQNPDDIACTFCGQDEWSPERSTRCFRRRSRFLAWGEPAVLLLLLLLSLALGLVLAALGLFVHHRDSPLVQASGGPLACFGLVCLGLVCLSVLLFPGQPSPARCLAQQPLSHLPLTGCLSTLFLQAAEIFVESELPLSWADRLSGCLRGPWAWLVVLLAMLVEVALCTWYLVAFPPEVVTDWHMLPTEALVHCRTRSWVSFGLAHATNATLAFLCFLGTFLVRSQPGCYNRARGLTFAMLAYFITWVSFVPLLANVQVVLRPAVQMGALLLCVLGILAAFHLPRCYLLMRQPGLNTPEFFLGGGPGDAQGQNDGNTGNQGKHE
# Assay: In vitro hT1R2/hT1R3 sweet taste receptor activation assay (FLIPR, dose response)
# Assay type: cell-based
# Details: Table E, Sweet Enhancer Amides; read-out: Sweet EC50
# Description: Activity was determined using an automated fluorometric imaging assay on a FLIPR instrument (Fluorometric Intensity Plate Reader, Molecular Devices, Sunnyvale, Calif.) (designated FLIPR assay). […] S-9 cells were grown for 24 hours at 37° C. S-9 cells were then loaded with the calcium dye Fluo-3AM (Molecular Probes, Eugene, Oreg.), 4 µM in a phosphate buffered saline (D-PBS) (Invitrogen, Carlsbad, Calif.), for 1 hour at room temperature. After replacement with 25 µl D-PBS, stimulation was performed in the FLIPR instrument and at room temperature by the addition of 25 µl D-PBS supplemented with different stimuli at concentrations corresponding to twice the desired final level.
# For dose-responses analysis, stimuli were presented in duplicates at 10 different concentrations ranging from 60 nM to 30 µM. Activities were normalized to the response obtained with 400 mM D-fructose, a concentration that elicits maximum receptor response. EC50s were determined using a non-linear regression algorithm (using a Senomyx, Inc. software), where the Hill slope, bottom asymptotes and top asymptotes were allow to vary.
row,EC50 [nM],Structure (SMILES)
1,190,"CC1CCc2ccccc2C1NC(=O)c1cccc(Cl)c1O (centres unmarked) [Example E1, 3-chloro-2-hydroxy-N-(2-methyl-1,2,3,4-tetrahydronaphthalen-1-yl)benzamide]"
2,650,"O=C(N[C@@H]1CCCc2ccccc21)c1cccc(Cl)c1O [Example E2, (R)-3-chloro-2-hydroxy-N-(1,2,3,4-tetrahydronaphthalen-1-yl)benzamide]"
3,1030,"O=C(NC1CCCc2c(O)cccc21)c1cccc(Cl)c1O (centres unmarked) [Example E3, 3-chloro-2-hydroxy-N-(5-hydroxy-1,2,3,4-tetrahydronaphthalen-1-yl)benzamide]"
4,1610,"CC1CCC(NC(=O)c2cccc(Cl)c2O)c2ccccc21 (centres unmarked) [Example E4, 3-chloro-2-hydroxy-N-(4-methyl-1,2,3,4-tetrahydronaphthalen-1-yl)benzamide]"
5,1610,"COc1ccc2c(c1)CCCC2NC(=O)c1cccc(Cl)c1O (centres unmarked) [Example E5, 3-chloro-2-hydroxy-N-(6-methoxy-1,2,3,4-tetrahydronaphthalen-1-yl)benzamide]"
6,1480,"Cc1nocc1C(=O)NC1c2ccccc2CCC1C (centres unmarked) [Example E6, 3-methyl-N-(2-methyl-1,2,3,4-tetrahydronaphthalen-1-yl)isoxazole-4-carboxamide]"
7,1810,"O=C(NC1CCCc2ccccc21)c1cccc(Cl)c1O (centres unmarked) [Example E7, 3-chloro-2-hydroxy-N-(1,2,3,4-tetrahydronaphthalen-1-yl)benzamide]"
8,1980,"CC1CCc2ccccc2C1NC(=O)c1cccc(O)c1O (centres unmarked) [Example E8, 2,3-dihydroxy-N-(2-methyl-1,2,3,4-tetrahydronaphthalen-1-yl)benzamide]"
9,2360,"CC1CCc2ccccc2C1NC(=O)c1ccccc1O (centres unmarked) [Example E9, 2-hydroxy-N-(2-methyl-1,2,3,4-tetrahydronaphthalen-1-yl)benzamide]"
10,2440,"COc1cccc2c1CCCC2NC(=O)c1cccc(O)c1O (centres unmarked) [Example E10, 2,3-dihydroxy-N-(5-methaxy-1,2,3,4-tetrahydronaphthalen-1-yl)benzamide]"
11,2460,"Cc1nocc1C(=O)NC1CCC(C)c2ccccc21 (centres unmarked) [Example E11, 3-methyl-N-(4-methyl-1,2,3,4-tetrahydronaphthalen-1-yl)isoxazole-4-carboxamide]"
12,2850,"COc1cccc2c1CCCC2NC(=O)c1conc1C (centres unmarked) [Example E12, N-(5-methoxy-1,2,3,4-tetrahydronaphthalen-1-yl)-3-methylisoxazole-4-carboxamide]"
13,2910,"Cc1c(Cl)cccc1C(=O)N[C@H]1CCCc2ccccc21 [Example E13, (S)-3-chloro-2-methyl-N-(1,2,3,4-tetrahydronaphthalen-1-yl)benzamide]"

# Same assay, conditions: read-out: EC50 for activation of a hT1R2/hT1R3 sweet receptor expressed in an HEK293 cell line
row,EC50 [nM],Structure (SMILES)
1,1070,"O=C(Nc1c(F)cc(Br)cc1F)N1Cc2cccc([N+](=O)[O-])c2C1 [Example 196, N-(4-Bromo-2,6-difluorophenyl)-4-nitroisoindoline-2-carboxamide]"
2,520,"Cc1ccc2c(c1)CN(C(=O)Nc1c(F)cc(Br)cc1F)C2 [Example 197, N-(4-Bromo-2,6-difluorophenyl)-5-methylisoindoline-2-carboxamide]"
3,420,"O=C(Nc1c(F)cc(Br)cc1F)N1Cc2ccc(Br)cc2C1 [Example 198, 5-Bromo-N-(4-bromo-2,6-difluorophenyl)isoindoline-2-carboxamide]"
4,950,"Cc1cccc2c1CN(C(=O)Nc1ccc3c(c1)OCO3)C2 [Example 199, N-(3,4-(methylenedioxy)phenyl)-4-methylisoindoline-2-carboxamide]"
5,1020,"CSc1cc(C)c(C(=O)N[C@H](C)C(C)(C)C)c(C)c1 [Example 200, (R)-N-(3,3-dimethylbutan-2-yl)-2,6-dimethyl-4-(methylthio)benzamide]"
6,690,"CCCOc1cc(C)c(C(=O)NC2CCCCC2C)c(C)c1 (centres unmarked) [Example 201, 2,6-dimethyl-N-(2-methylcyclohexyl)-4-propoxybenzamide]"
7,1020,"Cc1cc(-c2ccco2)cc(C)c1C(=O)NC1CCCCC1C (centres unmarked) [Example 202, 4-(furan-2-yl)-2,6-dimethyl-N-(2-methylcyclohexyl)benzamide]"
